System: P12-Ichikawa
Assay: cell viability relative to DMSO control; higher = less cytotoxic
Settings: 48 h
Summary of the method: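 Leukemia cells (NOMO1 or SEM, 500 cells/well; P12-Ichikawa, 1000 cells/well) were seeded in 5 μl in 1536-well plates after at least four passages of adaptation to each medium. They received library compounds in DMSO by pin dosing, 11 threefold points from 47 μM to 0.79 nM. Luminescence with CellTiter-Glo One was read after 48 h at 37°C. Viability is stated per plate relative to DMSO wells, with cell-free wells as background.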

[1] = HPLM + 10% dialyzed FBS, 0.000781 µM
[2] = HPLM + 10% dialyzed FBS, 0.00234 µM
[3] = HPLM + 10% dialyzed FBS, 0.00702 µM
[4] = HPLM + 10% dialyzed FBS, 0.0211 µM
[5] = HPLM + 10% dialyzed FBS, 0.0632 µM
[6] = HPLM + 10% dialyzed FBS, 0.19 µM
[7] = HPLM + 10% dialyzed FBS, 0.569 µM
[8] = HPLM + 10% dialyzed FBS, 1.71 µM
[9] = HPLM + 10% dialyzed FBS, 5.12 µM
[10] = HPLM + 10% dialyzed FBS, 15.4 µM
[11] = HPLM + 10% dialyzed FBS, 46.1 µM
[12] = RPMI 5 mM glucose + 10% FBS, 0.000781 µM
[13] = RPMI 5 mM glucose + 10% FBS, 0.00234 µM
[14] = RPMI 5 mM glucose + 10% FBS, 0.00702 µM
[15] = RPMI 5 mM glucose + 10% FBS, 0.0211 µM
[16] = RPMI 5 mM glucose + 10% FBS, 0.0632 µM
[17] = RPMI 5 mM glucose + 10% FBS, 0.19 µM
[18] = RPMI 5 mM glucose + 10% FBS, 0.569 µM
[19] = RPMI 5 mM glucose + 10% FBS, 1.71 µM
[20] = RPMI 5 mM glucose + 10% FBS, 5.12 µM
[21] = RPMI 5 mM glucose + 10% FBS, 15.4 µM
[22] = RPMI 5 mM glucose + 10% FBS, 46.1 µM
[23] = RPMI 5 mM glucose + 10% dialyzed FBS, 0.000781 µM
[24] = RPMI 5 mM glucose + 10% dialyzed FBS, 0.00234 µM
[25] = RPMI 5 mM glucose + 10% dialyzed FBS, 0.00702 µM
[26] = RPMI 5 mM glucose + 10% dialyzed FBS, 0.0211 µM
[27] = RPMI 5 mM glucose + 10% dialyzed FBS, 0.0632 µM
[28] = RPMI 5 mM glucose + 10% dialyzed FBS, 0.19 µM
[29] = RPMI 5 mM glucose + 10% dialyzed FBS, 0.569 µM
[30] = RPMI 5 mM glucose + 10% dialyzed FBS, 1.71 µM
[31] = RPMI 5 mM glucose + 10% dialyzed FBS, 5.12 µM
[32] = RPMI 5 mM glucose + 10% dialyzed FBS, 15.4 µM
[33] = RPMI 5 mM glucose + 10% dialyzed FBS, 46.1 µM

| SMILES | cell viability [1] [%] | cell viability [2] [%] | cell viability [3] [%] | cell viability [4] [%] | cell viability [5] [%] | cell viability [6] [%] | cell viability [7] [%] | cell viability [8] [%] | cell viability [9] [%] | cell viability [10] [%] | cell viability [11] [%] | cell viability [12] [%] | cell viability [13] [%] | cell viability [14] [%] | cell viability [15] [%] | cell viability [16] [%] | cell viability [17] [%] | cell viability [18] [%] | cell viability [19] [%] | cell viability [20] [%] | cell viability [21] [%] | cell viability [22] [%] | cell viability [23] [%] | cell viability [24] [%] | cell viability [25] [%] | cell viability [26] [%] | cell viability [27] [%] | cell viability [28] [%] | cell viability [29] [%] | cell viability [30] [%] | cell viability [31] [%] | cell viability [32] [%] | cell viability [33] [%] |
| --- | --- | --- | --- | --- | --- | --- | --- | --- | --- | --- | --- | --- | --- | --- | --- | --- | --- | --- | --- | --- | --- | --- | --- | --- | --- | --- | --- | --- | --- | --- | --- | --- | --- |
| CNC(=O)[C@H](CC/1=C/N=C\2/C=C\C\C=C12)NC(=O)[C@H](CC(C)C)CC(=O)NO | 116 | 108 | 103 | 99.5 | 116 | 111 | 116 | 105 | 108 | 30.9 | 29.8 | 99.5 | 107 | 98 | 102 | 108 | 108 | 113 | 106 | 97.9 | 28.4 | 33.3 | 105 | 107 | 107 | 112 | 115 | 114 | 114 | 105 | 107 | 24.7 | 32.1 |
| CN(C)C1=C(Br)C=C(C=C1)C\2NC3=C(\C4=C2C(=O)CC(C)(C)C4)C5=CC=CC=C5C=C3 (centres undefined) | 116 | 96.7 | 118 | 116 | 116 | 113 | 106 | 108 | 107 | 103 | 108 | 112 | 115 | 116 | 104 | 111 | 100 | 109 | 101 | 105 | 102 | 107 | 112 | 111 | 110 | 113 | 117 | 109 | 102 | 111 | 101 | 97 | 104 |
| CC/1=C(\O)C(=O)\C=C2/C1=C/C=C3\[C@@]2(C)CC[C@@]4(C)[C@@H]5C[C@@](C)(CC[C@]5(C)CC[C@]34C)C(O)=O | 105 | 96.7 | 103 | 103 | 114 | 109 | 104 | 98.5 | 56.4 | 5.75 | 5.87 | 97.4 | 97.3 | 104 | 96.9 | 102 | 97.2 | 106 | 75.9 | 22.5 | 5.4 | 4.66 | 96.1 | 94.9 | 98.8 | 101 | 95.6 | 94.8 | 97.9 | 71.1 | 16.6 | 5.81 | 4.82 |
| N=C1N[C@H]2[C@H](CS[C@H]2CCCCC(=O)O)N1 | 108 | 116 | 110 | 118 | 124 | 119 | 130 | 114 | 123 | 119 | 113 | 123 | 130 | 121 | 134 | 135 | 131 | 125 | 126 | 135 | 126 | 139 | 114 | 124 | 111 | 129 | 117 | 126 | 121 | 117 | 126 | 126 | 116 |
| COC(=O)\C1=C\CCN(C)C1 | 111 | 106 | 105 | 100 | 103 | 108 | 96.9 | 102 | 93.7 | 102 | 105 | 102 | 115 | 113 | 104 | 102 | 108 | 111 | 115 | 107 | 98.4 | 101 | 101 | 101 | 97 | 96.1 | 96.3 | 99.8 | 102 | 101 | 93 | 99 | 93.3 |
| CC(C)Cc1ccc(C(C)C(=O)O)cc1 (centres undefined) | 86.1 | 86 | 92.1 | 90 | 91.9 | 98.2 | 92.8 | 95.4 | 96.6 | 92.4 | 95.4 | 90.4 | 90.9 | 84.5 | 85 | 87.5 | 89.2 | 81.8 | 90.3 | 82.1 | 77.6 | 81 | 86.7 | 91.6 | 83.9 | 83.2 | 88.3 | 89.8 | 79.1 | 81.7 | 80.9 | 84.5 | 95.6 |
| N#C/N=C(\NCCCCCCOc1ccc(Cl)cc1)Nc1ccncc1 | 92.5 | 30.8 | 7.9 | 7.51 | 7.45 | 6.55 | 6.06 | 4.77 | 5.75 | 5.32 | 2.54 | 101 | 66.3 | 8.62 | 9.03 | 8.69 | 8.93 | 8.18 | 6.73 | 5.76 | 5.53 | 3.94 | 117 | 45.9 | 8.98 | 8.5 | 8.43 | 8.45 | 8.57 | 6.65 | 6.26 | 5.72 | 2.79 |
| CCOC(=O)/C=C/[C@H](C[C@@H]1CCNC1=O)NC(=O)[C@@H](CC(=O)[C@@H](NC(=O)c1cc(C)on1)C(C)C)Cc1ccc(F)cc1 | 122 | 115 | 121 | 87.7 | 130 | 127 | 126 | 117 | 121 | 122 | 117 | 114 | 122 | 130 | 76.8 | 135 | 135 | 134 | 136 | 121 | 120 | 119 | 112 | 106 | 118 | 80.2 | 111 | 119 | 115 | 128 | 119 | 124 | 118 |
| Nc1ncnc2c1c(-c1cccc(OCc3ccccc3)c1)cn2C1CC(CN2CCCC2)C1 (centres undefined) | 116 | 128 | 120 | 130 | 134 | 128 | 133 | 124 | 134 | 121 | 62.4 |  |  |  |  |  |  |  |  |  |  |  |  |  |  |  |  |  |  |  |  |  |  |
| COc1ncc(-c2ccc3c(Nc4cc(Oc5cc(F)cc(F)c5)cc(C(=O)O)c4)c([S+](=O)([O-])NC4CC4)cnc3c2)c(OC)n1 | 94.1 | 95.9 | 92.3 | 91.9 | 91.5 | 94.2 | 93.3 | 91.7 | 87.9 | 78.6 | 82.3 | 84 | 87.8 | 88.1 | 93.1 | 97.9 | 84.2 | 82.2 | 83.1 | 79.6 | 75.3 | 76.5 | 91.1 | 43 | 87.7 | 89.4 | 92.7 | 91 | 91.3 | 88.4 | 84.6 | 82.8 | 81.8 |
| CCOC(=O)\C1=C\[C@@H](OC(CC)CC)[C@H](NC(C)=O)[C@@H](N)C1 | 98.9 | 95 | 92.3 | 97.3 | 92.3 | 103 | 96.9 | 96 | 99.6 | 100 | 94.9 | 86 | 95.3 | 97.4 | 95.8 | 94.3 | 102 | 95.7 | 88.5 | 102 | 100 | 99.9 | 87.7 | 79.3 | 86.5 | 94.8 | 90.7 | 81.4 | 88.8 | 86.2 | 87.4 | 84.8 | 99.3 |
| COc1cccc2c1CCCC2CCCN1CCN(C2CCCCC2)CC1 (centres undefined) | 104 | 110 | 97.7 | 112 | 106 | 113 | 111 | 110 | 109 | 103 | 81.5 | 111 | 99.9 | 117 | 114 | 127 | 119 | 116 | 122 | 114 | 99.5 | 62.9 | 95.7 | 102 | 114 | 111 | 116 | 110 | 111 | 103 | 105 | 93.4 | 66.2 |
| C[C@]12CC[C@H]3[C@@H](CCC/4=C/C(=O)CC[C@]34C)[C@@H]1CC[C@@H]2OC(=O)CCC5CCCC5 | 93.1 | 100 | 104 | 113 | 98.8 | 101 | 106 | 110 | 104 | 111 | 114 | 83.1 | 84.3 | 101 | 107 | 115 | 104 | 107 | 108 | 110 | 101 | 99.9 | 90.8 | 93.5 | 99.8 | 102 | 100 | 104 | 104 | 98.9 | 104 | 110 | 96.7 |
| c1ccc(-c2oc3ncnc(NC[C@@H]4CCCO4)c3c2-c2ccccc2)cc1 |  |  |  |  |  |  |  |  |  |  |  |  |  |  |  |  |  |  |  |  |  |  | 109 | 118 | 120 | 113 | 127 | 124 | 128 | 115 | 112 | 103 | 49.8 |
| CCN(c1ccccc1)c1cc(NC)[n+](C)c(C)n1 | 108 | 111 | 108 | 106 | 111 | 114 | 107 | 107 | 119 | 102 | 101 | 112 | 114 | 120 | 114 | 118 | 106 | 114 | 105 | 108 | 109 | 98.9 | 114 | 109 | 112 | 116 | 111 | 118 | 117 | 117 | 111 | 104 | 106 |
| NC(=O)c1ncn([C@@H]2O[C@H](CO)[C@@H](O)[C@H]2O)c1O |  |  |  |  |  |  |  |  |  |  |  | 129 | 123 | 119 | 130 | 124 | 126 | 133 | 123 | 111 | 117 | 108 | 118 | 126 | 113 | 123 | 122 | 121 | 123 | 122 | 109 | 110 | 104 |
| CN1CCN(CCOc2cc(OC3CCOCC3)c3c(Nc4c(Cl)ccc5c4OCO5)ncnc3c2)CC1 | 121 | 125 | 130 | 134 | 130 | 128 | 136 | 124 | 101 | 32.3 | 20 |  |  |  |  |  |  |  |  |  |  |  |  |  |  |  |  |  |  |  |  |  |  |

From the supplement of paper PMC11451515
